Reference: patent US11731964B2, “Benzamide antibacterial agents” (Purdue Research Foundation, priority 2018, dated 2023)
Converted amounts (≈) assume the structure as drawn.

Assays:
Assay type in all cases: cell-based
[1] = system: MRSA ATCC 33592; experiment: MIC, broth microdilution; conditions: Staphylococcus aureus; MRSA ATCC 33592; read-out: MIC
Protocol: (§1) Bacteria were cultured in cation-adjusted Mueller Hinton Broth (for strains in Tables 1 and 4) or Brain Heart Infusion broth (for Enterococcus faecium) or Tryptic Soy Broth (all other bacteria) in a 96-well plate at 37° C. for at least 20 hours. The MIC was classified as the lowest concentration where no visual growth of bacteria was observed. The minimum bactericidal concentration (MBC) was tested by spotting 4 μL from wells with no growth onto Tryptic Soy Agar (TSA) plates. Plates were incubated at 37° C. for at least 18 hours before recording the MBC.

[2] = system: S. aureus; experiment: MIC (Table 5, strain not given); conditions: Staphylococcus aureus; S. aureus (Table 5)
Protocol: as §1

[3] = system: S. aureus; experiment: Screening of compounds for growth inhibition of S. aureus at 16 μg/mL (OD600); conditions: compound at 16 μg/mL, 24 hours, compared to DMSO control
Protocol: Library compounds and analogs of F6 were dissolved in DMSO at 10 mg/mL. S. aureus was cultured in Mueller Hinton Broth to early exponential phase at which point culture aliquots were incubated with compounds at 16 μg/mL or DMSO in duplicates. The culture was continued at 37° C. for 24 hours. Aliquots (100 μL) of the cultures were dispensed into clear 96 well microtiter plates and OD600 was recorded. Percent normalized OD600 was obtained by using the equation [formula] wherein for a given compound, X is the OD600 of culture with the compound, Xo is that of media only and XT is the OD600 of the DMSO control.

[4] = system: E. faecalis; experiment: MIC (Table 5, strain not given); conditions: Enterococcus faecalis; E. faecalis (Table 5)
Protocol: as §1

[5] = system: VRE; experiment: MIC (Table 5, strain not given); conditions: Enterococcus; VRE (Table 5)
Protocol: as §1

[6] = system: E. faecalis ATCC 29212; experiment: MIC, broth microdilution; conditions: Enterococcus faecalis, ATCC29212; E. faecalis ATCC 29212; read-out: MIC
Protocol: as §1

[7] = system: L. monocytogenes ATCC 19115; experiment: MIC, broth microdilution; conditions: Listeria monocytogenes, ATCC19115; L. monocytogenes ATCC 19115; read-out: MIC
Protocol: as §1

[8] = system: S. aureus ATCC 25923; experiment: MIC, broth microdilution; conditions: Staphylococcus aureus, ATCC25923; S. aureus ATCC 25923; read-out: MIC
Protocol: as §1

[9] = system: VRE (E. faecalis) ATCC 51575; experiment: MIC, broth microdilution; conditions: VRE (E. faecalis) ATCC 51575; read-out: MIC
Protocol: as §1

Row | Compound | MIC [1] | MIC [2] | inhibition of growth of S. aureus [3] | other results
1 | CN(CC1CCCO1)S(=O)(=O)c1ccc(C(=O)Nc2nnc(-c3ccccc3)o2)cc1 (stereo not shown) [Compound G9] |  |  | only slightly inhibited growth | 
2 | CCCCOc1ccc(-c2nnc(NC(=O)c3ccc(S(=O)(=O)N4C[C@H](C)C[C@H](C)C4)cc3)o2)cc1 [HSGN-191, N-(5-(4-butoxyphenyl)-1,3,4-oxadiazol-2-yl)-4-(((3S,5R)-3,5-dimethylpiperidin-1-yl)sulfonyl)benzamide] | 16 µg/mL (≈ 31.2 µM) | 16 µg/mL (≈ 31.2 µM) |  | 
3 | CCOC(=O)c1nnc(NC(=O)c2ccc(S(=O)(=O)N3CC(C)CC(C)C3)cc2)o1 (stereo not shown) [Compound F6-3, Ethyl 5-(4-((3,5-dimethylpiperidin-1-yl)sulfonyl)benzamido)-1,3,4-oxadiazole-2-carboxylate] |  |  | inactive | 
4 | COc1cccc(-c2nnc(NC(=O)c3ccc(S(=O)(=O)N(C)CC4CCCO4)cc3)o2)c1 (stereo not shown) [Compound G8] | 32 µg/mL (≈ 67.7 µM) |  | significantly inhibited the growth | MIC [6]: 32 µg/mL (≈ 67.7 µM); MIC [7]: 32 µg/mL (≈ 67.7 µM); MIC [8]: 32 µg/mL (≈ 67.7 µM); MIC [9]: 32 µg/mL (≈ 67.7 µM)
5 | CC1CC(C)CN(S(=O)(=O)c2ccc(C(=O)Nc3nnc(-c4cccs4)[nH]3)cc2)C1 (stereo not shown) [Compound F6-6, 4-((3,5-Dimethylpiperidin-1-yl)sulfonyl)-N-(5-(thiophen-2-yl)-4H-1,2,4-triazol-3-yl)benzamide] |  |  | activity was lost | 
6 | COc1cccc(OC)c1C(=O)N[C@@H]1C(=O)N2[C@@H]1SC(C)(C)[C@@H]2C(=O)O [Methicillin, reference compound] | > 128 µg/mL |  |  | MIC [8]: 2 µg/mL (≈ 5.26 µM)
7 | CC1CCCCN1S(=O)(=O)c1ccc(C(=O)Nc2nnc(-c3cccs3)o2)cc1 (stereo not shown) [Compound F5] | 8 µg/mL (≈ 18.5 µM) |  | significantly inhibited the growth | MIC [6]: 16 µg/mL (≈ 37 µM); MIC [7]: 16 µg/mL (≈ 37 µM); MIC [8]: 8 µg/mL (≈ 18.5 µM); MIC [9]: 16 µg/mL (≈ 37 µM)
8 | O=C(Nc1nnc(-c2ccco2)o1)c1ccc(S(=O)(=O)N2CCOCC2)cc1 [Compound F9] |  |  | not active | 
9 | CC1CC(C)CN(S(=O)(=O)c2ccc(C(=O)Nc3nnc(-c4cccs4)s3)cc2)C1 (stereo not shown) [Compound F6-7, 4-((3,5-Dimethylpiperidin-1-yl)sulfonyl)-N-(5-(thiophen-2-yl)-1,3,4-thiadiazol-2-yl)benzamide] |  |  | activity was lost | 
10 | CC1CC(C)CN(S(=O)(=O)c2ccc(C(=O)Nc3nnc(C4CCCO4)s3)cc2)C1 (stereo not shown) [Compound F6-2, 4-((3,5-Dimethylpiperidin-1-yl)sulfonyl)-N-(5-(tetrahydrofuran-2-yl)-1,3,4-thiadiazol-2-yl)benzamide] |  |  | inactive | 
11 | CC1CC(C)CN(S(=O)(=O)c2ccc(-c3nnc(-c4cccs4)o3)cc2)C1 (stereo not shown) [Compound F6-4, 2-(4-((3,5-Dimethylpiperidin-1-yl)sulfonyl)phenyl)-5-(thiophen-2-yl)-1,3,4-oxadiazole] |  |  | not active | 

The next lines start with results.

Row | MIC [1] | MIC [2] | Compound | inhibition of growth of S. aureus [3] | other results
12 | 8 µg/mL (≈ 15.7 µM) | 8 µg/mL (≈ 15.7 µM) | C[C@@H]1C[C@H](C)CN(S(=O)(=O)c2cccc(C(=O)Nc3nnc(-c4ccc(C(F)(F)F)cc4)o3)c2)C1 [HSGN-176, 3-(((3S,5R)-3,5-dimethylpiperidin-1-yl)sulfonyl)-N-(5-(4-(trifluoromethyl)phenyl)-1,3,4-oxadiazol-2-yl)benzamide] |  | 
13 | 8 µg/mL (≈ 17.6 µM) | 16 µg/mL (≈ 35.2 µM) | Cc1ccc(-c2nnc(NC(=O)c3ccc(S(=O)(=O)N4C[C@H](C)C[C@H](C)C4)cc3)o2)cc1 [HSGN-181, 4-(((3S,5R)-3,5-dimethylpiperidin-1-yl)sulfonyl)-N-(5-(p-tolyl)-1,3,4-oxadiazol-2-yl)benzamide] |  | 
14 | 2 µg/mL (≈ 4.25 µM) | 4 µg/mL (≈ 8.5 µM) | COc1cccc(-c2nnc(NC(=O)c3ccc(S(=O)(=O)N4C[C@H](C)C[C@H](C)C4)cc3)o2)c1 [HSGN-112, 4-(((3S,5R)-3,5-dimethylpiperidin-1-yl)sulfonyl)-N-(5-(3-methoxyphenyl)-1,3,4-oxadiazol-2-yl)benzamide] |  | MIC [4]: 8 µg/mL (≈ 17 µM); MIC [5]: 4 µg/mL (≈ 8.5 µM)
15 | 8 µg/mL (≈ 16.8 µM) | 8 µg/mL (≈ 16.8 µM) | C[C@@H]1C[C@H](C)CN(S(=O)(=O)c2ccc(C(=O)Nc3nnc(-c4ccc(F)cc4F)o3)cc2)C1 [HSGN-182, N-(5-(2,4-difluorophenyl)-1,3,4-oxadiazol-2-yl)-4-(((3S,5R)-3,5-dimethylpiperidin-1-yl)sulfonyl)benzamide] |  | 
16 | 8 µg/mL (≈ 16.8 µM) | 16 µg/mL (≈ 33.6 µM) | Cc1nc(C)c(-c2nnc(NC(=O)c3ccc(S(=O)(=O)N4C[C@H](C)C[C@H](C)C4)cc3)o2)s1 [HSGN-123, 4-(((3S,5R)-3,5-dimethylpiperidin-1-yl)sulfonyl)-N-(5-(2,4-dimethylthiazol-5-yl)-1,3,4-oxadiazol-2-yl)benzamide] |  | MIC [4]: 32 µg/mL (≈ 67.3 µM); MIC [5]: 64 µg/mL (≈ 135 µM)
17 | > 64 µg/mL | > 64 µg/mL | C[C@@H]1C[C@H](C)CN(S(=O)(=O)c2ccc(C(=O)Nc3nnc(-c4cccc(C(=N)NO)c4)o3)cc2)C1 [HSGN-151, 4-(((3S,5R)-3,5-dimethylpiperidin-1-yl)sulfonyl)-N-(5-(3-(N-hydroxycarbamimidoyl)phenyl)-1,3,4-oxadiazol-2-yl)benzamide] |  | 
18 | 0.5 µg/mL (≈ 1.05 µM) | 1 µg/mL (≈ 2.11 µM) | C[C@@H]1C[C@H](C)CN(S(=O)(=O)c2ccc(C(=O)Nc3nnc(-c4cccc(Cl)c4)o3)cc2)C1 [HSGN-110, N-(5-(3-chlorophenyl)-1,3,4-oxadiazol-2-yl)-4-(((3S,5R)-3,5-dimethylpiperidin-1-yl)sulfonyl)benzamide] |  | MIC [4]: 1 µg/mL (≈ 2.11 µM); MIC [5]: 2 µg/mL (≈ 4.21 µM)
19 | > 64 µg/mL | > 64 µg/mL | C[C@@H]1C[C@H](C)CN(S(=O)(=O)c2ccc(C(=O)Nc3ccc4[nH]c(=O)oc4c3)cc2)C1 [HSGN-158, 4-(((3S,5R)-3,5-dimethylpiperidin-1-yl)sulfonyl)-N-(2-oxo-2,3-dihydrobenzo[d]oxazol-6-yl)benzamide] |  | 
20 | 0.25 µg/mL (≈ 0.478 µM) | 0.25 µg/mL (≈ 0.478 µM) | Cc1cc(C(=O)Nc2nnc(-c3ccc(C(F)(F)F)cc3)o2)ccc1S(=O)(=O)N1C[C@H](C)C[C@H](C)C1 [HSGN-189, 4-(((3S,5R)-3,5-dimethylpiperidin-1-yl)sulfonyl)-3-methyl-N-(5-(4-(trifluoromethyl)phenyl)-1,3,4-oxadiazol-2-yl)benzamide] |  | 
21 | 1 µg/mL (≈ 1.97 µM) | 2 µg/mL (≈ 3.93 µM) | C[C@@H]1C[C@H](C)CN(S(=O)(=O)c2ccc(C(=O)Nc3nnc(-c4cccc(C(F)(F)F)c4)o3)cc2)C1 [HSGN-122, 4-(((3S,5R)-3,5-dimethylpiperidin-1-yl)sulfonyl)-N-(5-(3-(trifluoromethyl)phenyl)-1,3,4-oxadiazol-2-yl)benzamide] |  | MIC [4]: 4 µg/mL (≈ 7.87 µM); MIC [5]: 8 µg/mL (≈ 15.7 µM)
22 | 1 µg/mL (≈ 1.91 µM) | 2 µg/mL (≈ 3.83 µM) | Cc1ccc(C(=O)Nc2nnc(-c3ccc(C(F)(F)F)cc3)o2)cc1S(=O)(=O)N1C[C@H](C)C[C@H](C)C1 [HSGN-177, 3-(((3S,5R)-3,5-dimethylpiperidin-1-yl)sulfonyl)-4-methyl-N-(5-(4-(trifluoromethyl)phenyl)-1,3,4-oxadiazol-2-yl)benzamide] |  | 
23 | 4 µg/mL (≈ 9.08 µM) | 4 µg/mL (≈ 9.08 µM) | C[C@@H]1C[C@H](C)CN(S(=O)(=O)c2ccc(C(=O)Nc3nnc(-c4ccccc4)o3)cc2)C1 [HSGN-180, 4-(((3S,5R)-3,5-dimethylpiperidin-1-yl)sulfonyl)-N-(5-phenyl-1,3,4-oxadiazol-2-yl)benzamide] |  | 
24 | > 64 µg/mL | > 64 µg/mL | O=C1CN(S(=O)(=O)c2ccc(C(=O)Nc3nnc(-c4ccc(C(F)(F)F)cc4)o3)cc2)CCN1 [HSGN-162, 4-((3-oxopiperazin-1-yl)sulfonyl)-N-(5-(4-(trifluoromethyl)phenyl)-1,3,4-oxadiazol-2-yl)benzamide] |  | 
25 | 32 µg/mL (≈ 75.2 µM) | 64 µg/mL (≈ 150 µM) | O=C(Nc1nnc(-c2cccs2)o1)c1ccc(S(=O)(=O)Cc2ccccc2)cc1 [HSGN-104, 4-(benzylsulfonyl)-N-(5-(thiophen-2-yl)-1,3,4-oxadiazol-2-yl)benzamide] |  | MIC [4]: 64 µg/mL (≈ 150 µM); MIC [5]: > 128 µg/mL
26 | 0.5 µg/mL (≈ 1.09 µM) | 2 µg/mL (≈ 4.36 µM) | C[C@@H]1C[C@H](C)CN(S(=O)(=O)c2ccc(C(=O)Nc3nnc(-c4cccc(F)c4)o3)cc2)C1 [HSGN-111, 4-(((3S,5R)-3,5-dimethylpiperidin-1-yl)sulfonyl)-N-(5-(3-fluorophenyl)-1,3,4-oxadiazol-2-yl)benzamide] |  | MIC [4]: 2 µg/mL (≈ 4.36 µM); MIC [5]: 2 µg/mL (≈ 4.36 µM)
27 | 0.5 µg/mL (≈ 0.983 µM) | 1 µg/mL (≈ 1.97 µM) | Cc1cc(C(=O)Nc2nnc(-c3ccc(C(F)(F)F)cc3)o2)ccc1S(=O)(=O)N1CCC(C)CC1 [HSGN-195, 3-methyl-4-((4-methylpiperidin-1-yl)sulfonyl)-N-(5-(4-(trifluoromethyl)phenyl)-1,3,4-oxadiazol-2-yl)benzamide] |  | 
